Values of other authors, collected in patent US8221990B2, “Screening GPR12 receptor for substances having Nesfatin-1-like action, or which regulate Nesfatin-1 action” (Teijin Pharma Limited, priority 2007, dated 2012).

Molecular target: T1, GPR12 (Homo sapiens, UniProt P47775)
T1 sequence (P47775 1-334): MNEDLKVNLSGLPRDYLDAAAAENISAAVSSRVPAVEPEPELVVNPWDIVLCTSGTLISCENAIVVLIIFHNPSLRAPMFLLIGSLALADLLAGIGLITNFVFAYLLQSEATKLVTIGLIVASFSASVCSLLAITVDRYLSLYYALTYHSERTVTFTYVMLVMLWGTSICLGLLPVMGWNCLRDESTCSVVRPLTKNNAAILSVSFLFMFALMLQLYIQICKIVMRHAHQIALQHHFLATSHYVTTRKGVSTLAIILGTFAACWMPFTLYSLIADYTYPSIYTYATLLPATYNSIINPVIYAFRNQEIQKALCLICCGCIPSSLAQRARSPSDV
Details: cells in which a GPR12 gene is introduced and expressed; cited from earlier work

Row | SMILES | cytoplasmic calcium ion concentration
1 | CCCCCCCCCCCCC/C=C/[C@@H](O)[C@@H](N)COP(=O)([O-])OCC[N+](C)(C)C [SPC, sphingosylphosphorylcholine] | increase in cytoplasmic calcium ion concentration occurs
2 | CCCCCCCCCCCCC/C=C/[C@@H](O)[C@@H](N)COP(=O)(O)O [S1P, sphingosine 1-phosphate] | increase in cytoplasmic calcium ion concentration occurs
